Positions of bridges follow the written chain, without caps; N, C: chain ends. Non-standard residues stand in square brackets, D forms with d. Residues, ends and D or L forms follow the SMILES beside them. Bip(4'-COOH) = N[C@@H](Cc1ccc(-c2ccc(C(=O)O)cc2)cc1)C(=O)O; Ala(morpholin-4-yl) = N[C@@H](CN1CCOCC1)C(=O)O; Phe(4-CONH2) = NC(=O)c1ccc(C[C@H](N)C(=O)O)cc1; Phe(4-CH2NH2) = NCc1ccc(C[C@H](N)C(=O)O)cc1; Bip = N[C@@H](Cc1ccc(-c2ccccc2)cc1)C(=O)O; Tic = O=C(O)[C@@H]1Cc2ccccc2CN1; Aze = O=C(O)[C@@H]1CCN1; Sar = CNCC(=O)O
Each molecule was assayed against TNFα (Homo sapiens, UniProt P01375) (assay: TNF-Induced HEK-Blue Assay). Details: HEK-Blue-CD40L cells, NF-kB-driven secreted alkaline phosphatase reporter; TNFα 0.5 ng/ml; 18 h; read-out: TNF induced HEK-Blue assay IC50 value.
TNFα, sequence (P01375 77-233 limits assumed): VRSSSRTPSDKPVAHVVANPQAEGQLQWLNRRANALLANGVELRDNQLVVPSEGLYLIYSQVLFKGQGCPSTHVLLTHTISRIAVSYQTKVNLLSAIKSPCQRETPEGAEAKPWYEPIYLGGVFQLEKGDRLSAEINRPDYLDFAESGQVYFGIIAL
Format: cell-based

`CC(C)C[C@@H]1NC(=O)[C@H](Cc2ccc(O)cc2)NC(=O)[C@H](C(C)C)NC(=O)[C@@H]2Cc3ccccc3CN2C(=O)[C@H](CC(N)=O)NC(=O)[C@@H](CCCNC(=N)N)NC(=O)[C@H](CC(=O)O)NC(=O)[C@H](Cc2ccc(O)cc2)NC(=O)CN(C)C(=O)[C@H](Cc2ccc(-c3ccccc3)cc2)NC(=O)[C@H](Cc2ccc(-c3ccc(C(=O)O)cc3)cc2)NC(=O)[C@H](CN2CCOCC2)NC(=O)CSC[C@@H](C(=O)NCC(N)=O)NC1=O` [Example 146] ({CH2CO}-[Ala(morpholin-4-yl)][Bip(4'-COOH)][Bip][Sar]YD[dR]N[Tic]VYLCG-NH2; thioether N-13) and `CC(C)C[C@@H]1NC(=O)[C@H](Cc2ccc(O)cc2)NC(=O)[C@H](C(C)C)NC(=O)[C@@H]2Cc3ccccc3CN2C(=O)[C@H](C(C)C)NC(=O)[C@@H](CCCNC(=N)N)NC(=O)[C@H](CC(=O)O)NC(=O)[C@H](Cc2ccc(O)cc2)NC(=O)CN(C)C(=O)[C@H](Cc2ccc(-c3ccccc3)cc2)NC(=O)[C@H](Cc2ccc(-c3ccc(C(=O)O)cc3)cc2)NC(=O)[C@H](CN2CCOCC2)NC(=O)CSC[C@@H](C(=O)NCC(N)=O)NC1=O` [Example 148] ({CH2CO}-[Ala(morpholin-4-yl)][Bip(4'-COOH)][Bip][Sar]YD[dR]V[Tic]VYLCG-NH2; thioether N-13) cannot be ordered by IC50: < 50 nM for the first, < 50 nM for the second.

Compared with `CC(C)C[C@@H]1NC(=O)[C@H](Cc2ccc(O)cc2)NC(=O)[C@H](C(C)C)NC(=O)[C@@H]2CCN2C(=O)[C@H](C(C)C)NC(=O)[C@@H](CCCNC(=N)N)NC(=O)[C@H](CC(=O)O)NC(=O)[C@H](Cc2ccc(O)cc2)NC(=O)CN(C)C(=O)[C@H](Cc2ccc(-c3ccccc3)cc2)NC(=O)[C@H](Cc2ccc(-c3ccc(C(=O)O)cc3)cc2)NC(=O)[C@H](CN2CCOCC2)NC(=O)CSC[C@@H](C(=O)NCC(N)=O)NC1=O` [Example 147] ({CH2CO}-[Ala(morpholin-4-yl)][Bip(4'-COOH)][Bip][Sar]YD[dR]V[Aze]VYLCG-NH2; thioether N-13), `CC(C)C[C@@H]1NC(=O)[C@H](Cc2ccc(C(N)=O)cc2)NC(=O)[C@H](C(C)C)NC(=O)[C@@H]2CCCN2C(=O)[C@H](C(C)C)NC(=O)[C@@H](CCCNC(=N)N)NC(=O)[C@H](CC(=O)O)NC(=O)[C@H](Cc2ccc(O)cc2)NC(=O)CN(C)C(=O)[C@H](Cc2ccc(-c3ccccc3)cc2)NC(=O)[C@H](Cc2ccc(-c3ccccc3)cc2)NC(=O)[C@H](CN2CCOCC2)NC(=O)CSC[C@@H](C(=O)NCC(N)=O)NC1=O` [Example 151] ({CH2CO}-[Ala(morpholin-4-yl)][Bip][Bip][Sar]YD[dR]VPV[Phe(4-CONH2)]LCG-NH2; thioether N-13) is higher in IC50: < 50 nM for the first, 50 to 200 nM for the second. The first is the more potent here.

`CC(C)C[C@@H]1NC(=O)[C@H](Cc2ccc(O)cc2)NC(=O)[C@H](CC(C)C)NC(=O)[C@@H]2CCCN2C(=O)[C@H](C(C)C)NC(=O)[C@@H](CCCNC(=N)N)NC(=O)[C@H](CC(=O)O)NC(=O)[C@H](Cc2ccc(O)cc2)NC(=O)CN(C)C(=O)[C@H](Cc2ccc(-c3ccccc3)cc2)NC(=O)[C@H](Cc2ccc(-c3ccccc3)cc2)NC(=O)[C@H](CN2CCOCC2)NC(=O)CSC[C@@H](C(=O)NCC(N)=O)NC1=O` [Example 149] ({CH2CO}-[Ala(morpholin-4-yl)][Bip][Bip][Sar]YD[dR]VPLYLCG-NH2; thioether N-13) and `CC(C)C[C@@H]1NC(=O)[C@H](Cc2ccc(CN)cc2)NC(=O)[C@H](C(C)C)NC(=O)[C@@H]2CCCN2C(=O)[C@H](C(C)C)NC(=O)[C@@H](CCCNC(=N)N)NC(=O)[C@H](CC(=O)O)NC(=O)[C@H](Cc2ccc(O)cc2)NC(=O)CN(C)C(=O)[C@H](Cc2ccc(-c3ccccc3)cc2)NC(=O)[C@H](Cc2ccc(-c3ccccc3)cc2)NC(=O)[C@H](CN2CCOCC2)NC(=O)CSC[C@@H](C(=O)NCC(N)=O)NC1=O` [Example 150] ({CH2CO}-[Ala(morpholin-4-yl)][Bip][Bip][Sar]YD[dR]VPV[Phe(4-CH2NH2)]LCG-NH2; thioether N-13) fall in the same range of IC50: 50 to 200 nM for the first, 50 to 200 nM for the second.
